Results published in PMC3535334 (Nature Communications, 2012).

Target: Nano-lantern (ATP1)
Details: 20 nM protein, 50 mM HEPES pH 7.2, coelenterazine-h 1-10 μM

Kd: 300 µM
Compound: Nc1ncnc2c1ncn2[C@@H]1O[C@H](COP(=O)(O)OP(=O)(O)OP(=O)(O)O)[C@@H](O)[C@H]1O [ATP]
